Measurements published in patent publication US20060004002A1 (priority 2004, published 2006).
Like-named read-outs stand apart in the source and are kept apart here.

Assays:
Assay type in all cases: biochemical
Recombinant human Src = target: T1, Recombinant human Src (Homo sapiens, UniProt P12931); assay: Src tyrosine kinase activity assay with poly E4Y and 32P-ATP
T1 construct: made in house; host or cells: baculovirus-insect cell system
How it was run: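 Src expressed in baculovirus-insect cells; Csk and FGFr expressed as GST fusions in E. coli. Kinase activity measured as 32P transfer from γ32P-ATP (0.2 mM, 0.2-0.4 mCi/μmol) to poly E4Y in 0.15 M EPPS-NaOH pH 8.0, 6 mM MgCl2, 10% glycerol, 0.1% Triton X-100; in ATP-variation runs (0-250 μM), poly E4Y fixed at 150 μg/ml.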

Recombinant Csk = target: T2, Recombinant Csk (Homo sapiens, UniProt P41240); assay: Csk tyrosine kinase activity assay with poly E4Y and 32P-ATP; details: NI = no inhibition
T2 construct: GST ('glutathione-5-transferase' [sic]); made in house; host or cells: E. coli (pGEX expression vector)
Protocol: (§1) Recombinant human Src was expressed using the baculovirus-insect cell system and purified as published (Budde et al., 1993 and 2000). Recombinant Csk and the FGF receptor (FGFr) were expressed as […] fusion proteins using the pGEX expression vector and E. coli, and purified as described (Sun & Budde, 1995).
(§2) The tyrosine kinase activity of Src, Csk and FGFr was determined using poly E4Y and ^32P-ATP. Briefly, enzymes were assayed in a reaction mixture […] consisting of 0.15 M EPPS-NaOH (pH 8.0) with 6 mM MgCl2, 0.2 mM γ^32P-ATP (0.2-0.4 mCi/μmol), 10% glycerol, 0.1% Triton X-100, and poly E4Y. Poly E4Y is a synthetic peptide whose phosphorylation is measured in this assay by the addition of the radioactively labeled phosphate from the ATP (Budde et al., 1995). […] When ATP was varied (0, 50, 100 and 250 μM), poly E4Y was kept constant at 150 μg/ml.

FGF receptor (FGFr) = target: T3, FGF receptor (FGFr); assay: FGFr tyrosine kinase activity assay with poly E4Y and 32P-ATP; details: NI = no inhibition
T3 construct: fused on or other part: glutathione-S-transferase (GST) from the pGEX vector
Protocol: as §1, §2

[1] = poly E4Y, 32P-ATP, NI = no inhibition, read-out: IC50 Value Src
[2] = especially good inhibitors of Src, screening assay 50 μg/ml poly E4Y, 0.2 mM ATP, read-out: IC50 (inhibitors of Src)

T2 sequence (P41240 whole entry, species assumed): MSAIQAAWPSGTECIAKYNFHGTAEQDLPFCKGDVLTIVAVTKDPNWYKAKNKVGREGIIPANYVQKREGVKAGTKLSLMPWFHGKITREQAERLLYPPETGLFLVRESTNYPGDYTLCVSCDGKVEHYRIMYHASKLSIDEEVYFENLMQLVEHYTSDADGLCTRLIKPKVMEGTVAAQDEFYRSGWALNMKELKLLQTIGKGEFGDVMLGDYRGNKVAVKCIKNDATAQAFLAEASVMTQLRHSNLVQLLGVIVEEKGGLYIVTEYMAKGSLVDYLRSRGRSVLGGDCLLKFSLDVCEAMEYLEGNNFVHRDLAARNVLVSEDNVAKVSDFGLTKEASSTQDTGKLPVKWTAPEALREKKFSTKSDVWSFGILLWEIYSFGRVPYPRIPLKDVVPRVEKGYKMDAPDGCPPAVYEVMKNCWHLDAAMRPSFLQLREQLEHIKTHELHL
T1 sequence (P12931 whole entry): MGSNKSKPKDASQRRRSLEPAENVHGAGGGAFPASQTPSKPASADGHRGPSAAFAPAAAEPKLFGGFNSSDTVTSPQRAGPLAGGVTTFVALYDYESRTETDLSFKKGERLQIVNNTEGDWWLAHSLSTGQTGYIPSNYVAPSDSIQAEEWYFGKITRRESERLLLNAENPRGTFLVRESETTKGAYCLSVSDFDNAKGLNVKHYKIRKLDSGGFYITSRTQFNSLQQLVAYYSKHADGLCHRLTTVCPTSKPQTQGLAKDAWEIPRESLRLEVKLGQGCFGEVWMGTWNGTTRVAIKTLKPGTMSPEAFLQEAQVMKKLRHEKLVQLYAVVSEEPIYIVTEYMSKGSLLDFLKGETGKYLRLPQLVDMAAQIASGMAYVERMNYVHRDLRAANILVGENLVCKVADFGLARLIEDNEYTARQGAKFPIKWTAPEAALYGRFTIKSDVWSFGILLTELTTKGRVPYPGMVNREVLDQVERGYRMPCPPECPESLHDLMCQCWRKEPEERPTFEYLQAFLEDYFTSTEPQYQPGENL

Compound	IC50 (Recombinant human Src; [1]) [nM]	IC50 (Recombinant Csk) [nM]	IC50 (FGF receptor (FGFr)) [nM]	IC50 (Recombinant human Src; [2]) [nM]
COc1ccc(C=NNc2ncnc3c(C)c(-c4ccc(CN5CCOCC5)cc4)sc23)cc1O [Compound 46, 3-Hydroxy-4-methoxybenzaldehyde (6-(4-(morpholin-4-yl)methyl-phenyl)-7-methylthieno[3,2-d]pyrimidin-4-yl)hydrazone]	5.5	102000	102000	–
CCOc1cc(F)ccc1-c1sc2c(NN=Cc3ccc(OC)c(O)c3)ncnc2c1CO [Compound 60, 3-Hydroxy-4-methoxybenzaldehyde (6-(2-ethoxy-4-fluorophenyl)-7-hydroxymethylthieno[3,2-d]pyrimidin-4-yl)hydrazone]	36	210000	–	–
COc1ccc(C=NNc2ncnc3c(C)c(-c4ccccc4O)sc23)cc1O [Compound 84, 3-Hydroxy-4-methoxybenzaldehyde (6-(2-hydroxyphenyl)-7-methylthieno[3,2-d]pyrimidin-4-yl)hydrazone]	180	500000	–	–
CCCOc1ccccc1-c1sc2c(NN=Cc3cccs3)ncnc2c1O [Compound 85]	4.8	17700	7500	–
CCOc1ccccc1-c1sc2c(NN=Cc3ccc(O)c(OC)c3)ncnc2c1O [Compound 88, 4-Hydroxy-3-methoxybenzaldehyde (6-(2-ethoxyphenyl)-7-hydroxythieno[3,2-d]pyrimidin-4-yl)hydrazone]	2.5	3400	2300	–
CCOc1ccccc1-c1sc2c(NN=Cc3cc(Br)c(O)c(OC)c3)ncnc2c1O [Compound 89, 3-Bromo-4-hydroxy-5-methoxybenzaldehyde (6-(2-ethoxyphenyl)-7-hydroxythieno[3,2-d]pyrimidin-4-yl)hydrazone]	2.5	2900	1900	–
CCOc1ccccc1-c1sc2c(NN=Cc3ccc(O)c(Cl)c3)ncnc2c1O [Compound 92, 3-Chloro-4-hydroxybenzaldehyde (6-(2-ethoxyphenyl)-7-hydroxythieno[3,2-d]pyrimidin-4-yl)hydrazone]	4.2	11300	27700	–
CCOc1ccccc1-c1sc2c(NN=Cc3cc(OC)c(O)c(OC)c3)ncnc2c1O [Compound 96, 3,5-Dimethoxy-4-hydroxybenzaldehyde (6-(2-ethoxyphenyl)-7-hydroxythieno[3,2-d]pyrimidin-4-yl)hydrazone]	0.73	580	–	≤ 2000
CCOc1ccccc1-c1sc2c(NN=Cc3cc(O)c(OC)c(OC)c3)ncnc2c1O [Compound 100, 3,4-Dimethoxy-5-hydroxybenzaldehyde (6-(2-ethoxyphenyl)-7-hydroxythieno[3,2-d]pyrimidin-4-yl)hydrazone]	1.3	2100	–	–
CCOc1ccccc1-c1sc2c(NN=Cc3ccc(O)cc3)ncnc2c1O [Compound 104, 4-Hydroxybenzaldehyde (6-(2-ethoxyphenyl)-7-hydroxythieno[3,2-d]pyrimidin-4-yl)hydrazone]	1.6	980	–	≤ 2000
CCOc1ccccc1-c1sc2c(NN=Cc3cccc(O)c3)ncnc2c1O [Compound 105, 3-Hydroxybenzaldehyde (6-(2-ethoxyphenyl)-7-hydroxythieno[3,2-d]pyrimidin-4-yl)hydrazone]	4.3	900	–	≤ 2000
CCOc1ccccc1-c1sc2c(NN=Cc3ccncc3)ncnc2c1O [Compound 112, 4-Pyridinecarboxaldehyde (6-(2-ethoxyphenyl)-7-hydroxythieno[3,2-d]pyrimidin-4-yl)hydrazone]	4	7200	–	–
CCOc1ccccc1-c1sc2c(NN=Cc3cccc(C(=O)O)c3)ncnc2c1O [Compound 116, 3-Carboxybenzaldehyde (6-(2-ethoxyphenyl)-7-hydroxythieno[3,2-d]pyrimidin-4-yl)hydrazone]	5	7100	–	–
CCOc1ccccc1-c1sc2c(NN=Cc3[nH]cnc3C)ncnc2c1O [Compound 117, 4-Methyl-5-imidazolecarboxaldehyde (6-(2-ethoxyphenyl)-7-hydroxythieno[3,2-d]pyrimidin-4-yl)hydrazone]	5	5500	–	–
CCOc1ccccc1-c1sc2c(NN=Cc3ccco3)ncnc2c1O [Compound 121, 2-Furancarboxaldehyde (6-(2-ethoxyphenyl)-7-hydroxythieno[3,2-d]pyrimidin-4-yl)hydrazone]	6	5000	–	–
CCOc1ccccc1-c1sc2c(NN=Cc3sccc3C)ncnc2c1O [Compound 124, 3-Methyl-2-thiophenecarboxaldehyde (6-(2-ethoxyphenyl)-7-hydroxythieno[3,2-d]pyrimidin-4-yl)hydrazone]	9	15000	–	–
COc1ccc(C=NNc2ncnc3c(C#N)c(-c4ccc(N)cc4)sc23)cc1O [compound 59]	16	10000	–	–
CCOc1ccccc1-c1sc2c(NN=Cc3ccc(C(=O)O)cc3)ncnc2c1C#N [compound 68]	1.4	26000	–	–
CCOc1ccccc1-c1sc2c(NN=Cc3cccc(O)c3)ncnc2c1C#N [compound 103]	1.5	13000	–	–
